Assay results from PMC6044556 (ACS Omega, 2017).

How the values were obtained:
mice = experiment: Behavior of the mice after injection; format: in vivo, mice (Kunming); conditions: intravenous injection, GABA 50 mg/kg or GABA–CPP 10 mg/kg, symptom with GABA–CPP appeared a bit worse
[1] = GABA–CTP BBB penetration experiment: GABA in plasma of mice by LC–MS; format: in vivo, mice (Kunming); conditions: male mice, one bolus intravenous injection via tail vein (GABA 50 mg/kg, GABA–CPP 10 mg/kg)

SMILES: NCCCC(=O)O [GABA, γ-aminobutyric acid]
- behavior of the mice after injection (mice): quiet and sleepy behavior
- GABA concentration in plasma within 2 min after injection [1]: 7985 ng/mL
- GABA concentration in plasma within 1 h after injection [1]: 141 ng/mL
